# What was measured:
# [1] = cited from earlier work
# [2] = Hygroscopicity of crystalline salt in air; format: physicochemical; settings: crystalline substance, absorbs moisture from the air
# Experimental: 380.5 g Purified N-decylpyrrolidine (1.8 mole, fw=211.39) is added to 720 mL stirring acetonitrile in a 2 L, 4-neck round-bottom flask that is equipped with a heating mantle, mechanical stirrer, 500 mL addition funnel, reflux condensor and teflon-coated thermocouple. The reaction is carried out under a nitrogen atmosphere with a slow N2 purge. The stirring mixture is heated to 50° C., and 289.1 g freshly distilled 4-fluorobenzyl chloride (2.0 mole, fw=144.58) is added in a dropwise fashion over a period of about 60 minutes. The reaction mixture is then heated to about 80° C. for 8-12 hours and periodically monitored by HPLC (Method 10a) in order to ensure that the starting amine is entirely consumed. The reaction mixture is cooled to room temperature, filtered through sintered-glass and placed on a rotary evaporator to remove the solvent (acetonitrile). 1.0 L Methyl t-butyl ether (MTBE) is added portionwise with mechanical stirring to the sticky orange-yellow reaction residue. Once this mixture is fully suspended in the solvent, it is transferred to a clean 4 L Erlenmeyer flask, and an additional amount of MTBE (1.9 L) is slowly added with stirring. […] A sharp melting point in a glass capillary is measured at 137-138° C. when measured between 90-140° C. at the heating rate of 1.0° C./minute. […]
# [3] = Solubility in water; settings: pure water
# [4] = Partitioning in two-phase diethyl ether-water extraction; format: physicochemical
# Experimental: This is a modification of Method A based on the partitioning behavior in a two-phase diethyl ether-water extraction. […] 53.4 g Purified and recrystallized N-(4-fluorobenzyl)-N-decylpyrrolidinium chloride (150 mmole, fw=355.97) is placed in a 250 mL separatory funnel followed by 53.4 g degassed, deionized water. The flask is shaken until a clear, viscous solution is formed (˜1.5 M solution). 25.6 g Trifluoroacetic (225 mmole, fw=114.02) is added to the mixture which is vigorously mixed. Immediately two phases form with the product in the lower layer. 110 mL peroxide-free diether ether is added to the separatory funnel and the mixture is vigorously mixed again. After 2 hours, the phases fully separate with the product in the upper ether phase. The lower phase is discarded and the upper is retained. 55 mL 1% trifluoroacetic acid in distilled water is added, the mixture is vigorously mixed and phases are again allowed to separate. Again, the upper phase is retained, dried over anhydrous magnesium sulfate, filtered and placed on a rotary evaporator in order to remove the ether along with residual HCl, trifluoroacetic acid and water. This procedure yields 59.2 g (91%) of a pure, clear, viscous oil (ionic liquid). This material is suitable for use as a displacer. HPLC purity of the quat cation is essentially identical to the starting material. […]
# [5] = amine pH-buffers with low pKa values; cited from earlier work
structure (smiles),measurement,setting,value
C1CCCCC1 [cyclohexane],solubility in water,[1],~10 µM
C1CC[C@H]2CCCC[C@@H]2C1 [trans-decalin],solubility in water,[1],< 1 µM
c1ccc2ccccc2c1 [naphthalene],solubility in water,[1],200 µM
CCCCCCCCCC[N+]1(Cc2ccc(F)cc2)CCCC1.[Cl-] [N-(4-Fluorobenzyl)-N-decylpyrrolidinium Chloride],hygroscopicity,[2],very hygroscopic
same,solubility,[3],2000 mM
same,partitioning behavior,[4],strongly partitions into the water layer
CCN1CCNCC1 [N-ethylpiperazine],pKa,[5],5.0
"CN(C)CCN(C)C [N,N,N′,N′-tetramethylethylene-diamine]",pKa,[5],5.9
CCCCCCCCCC[N+]1(Cc2ccc(F)cc2)CCCC1.O=C([O-])C(F)(F)F [N-(4-Fluorobenzyl)-N-decylpyrrolidinium Trifluoroacetate],solubility,[3],~120 mM
same,partitioning behavior,[4],strongly partitions into the ether layer
